Reference: the supplement of paper PMC5908809

Legend:
Assay in all cases: relative IC50 (inflection point of fitted viability curve, relative to fitted max inhibition); higher = less sensitive
Details in all cases: 72 h
[1] = tested on: normal primary NK cells, pool 3 (3 donors) (IL-2 2.5 ng/mL)
Protocol: (§1)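 Drug sensitivity and resistance testing: 5 concentrations over a 10,000-fold range, 72 h at 37 °C, viability by CellTiter-Glo normalised to DMSO and benzethonium chloride controls. IC50 is the inflection point of a logistic fit (min fixed at 0, max fitted), so it is relative to the fitted maximal inhibition. Kept only where fitted max inhibition is at least 50%.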

NKL (IL-2 2.5 ng/mL) = tested on: NKL (IL-2 2.5 ng/mL)
Protocol: as §1

[2] = tested on: normal primary NK cells, pool 2 (3 donors) (IL-2 2.5 ng/mL)
Protocol: as §1

DERL-7 (IL-2 2.5 ng/mL) = tested on: DERL-7 (IL-2 2.5 ng/mL)
Protocol: as §1

IMC-1 (IL-2 20 ng/mL) = tested on: IMC-1 (IL-2 20 ng/mL)
Protocol: as §1

KAI3 (IL-2 2.5 ng/mL) = tested on: KAI3 (IL-2 2.5 ng/mL)
Protocol: as §1

KHYG-1 (IL-2 2.5 ng/mL) = tested on: KHYG-1 (IL-2 2.5 ng/mL)
Protocol: as §1

NK-92 (IL-2 2.5 ng/mL) = tested on: NK-92 (IL-2 2.5 ng/mL)
Protocol: as §1

NK-YS (IL-2 2.5 ng/mL) = tested on: NK-YS (IL-2 2.5 ng/mL)
Protocol: as §1

SNK-6 (IL-2 2.5 ng/mL) = tested on: SNK-6 (IL-2 2.5 ng/mL)
Protocol: as §1

YT (IL-2 2.5 ng/mL) = tested on: YT (IL-2 2.5 ng/mL)
Protocol: as §1

[3] = tested on: normal primary NK cells, pool 1 (3 donors), resting (IL-2 0 ng/mL)
Protocol: as §1

[4] = tested on: normal primary NK cells, pool 1 (3 donors) (IL-2 2.5 ng/mL)
Protocol: as §1

| Structure (SMILES) | relative IC50 [1] | relative IC50 (NKL (IL-2 2.5 ng/mL)) | relative IC50 [2] | relative IC50 (DERL-7 (IL-2 2.5 ng/mL)) | relative IC50 (IMC-1 (IL-2 20 ng/mL)) | relative IC50 (KAI3 (IL-2 2.5 ng/mL)) | relative IC50 (KHYG-1 (IL-2 2.5 ng/mL)) | relative IC50 (NK-92 (IL-2 2.5 ng/mL)) | relative IC50 (NK-YS (IL-2 2.5 ng/mL)) | relative IC50 (SNK-6 (IL-2 2.5 ng/mL)) | relative IC50 (YT (IL-2 2.5 ng/mL)) | relative IC50 [3] | relative IC50 [4] |
| --- | --- | --- | --- | --- | --- | --- | --- | --- | --- | --- | --- | --- | --- |
| O=C1CN2Cc3c(ccc(Cl)c3Cl)N=C2N1 [Anagrelide] | > 10 µM | – | – | – | – | – | – | – | – | – | – | – | – |
| Oc1ccc2c(c1)CC[C@H](c1ccccc1)[C@@H]2c1ccc(OCCN2CCCC2)cc1 [Lasofoxifene] | > 1 µM | > 1000 nM | > 1 µM | – | – | – | – | – | – | – | – | – | – |
| CC(=O)O[C@H]1C(=O)[C@@]2(C)[C@H]([C@H](OC(=O)c3ccccc3)[C@]3(O)C[C@H](OC(=O)[C@H](O)[C@@H](NC(=O)c4ccccc4)c4ccccc4)C(C)=C1C3(C)C)[C@]1(OC(C)=O)CO[C@@H]1C[C@@H]2O [Paclitaxel] | – | 4.61 nM | – | 3.25 nM | 3.31 nM | 2.92 nM | 6.15 nM | 22 nM | 4.26 nM | 3.77 nM | 5.42 nM | – | – |
| COCC(=O)NC/C=C/c1ccc2ncnc(Nc3ccc(Oc4ccc(C)nc4)c(C)c3)c2c1 | – | 2070 nM | – | – | 2920 nM | 1870 nM | – | 1470 nM | – | 3270 nM | – | 834 nM | – |
| Nc1nc2[nH]cc(CCc3ccc(C(=O)N[C@@H](CCC(=O)O)C(=O)O)cc3)c2c(=O)[nH]1 [Pemetrexed] | > 10 µM | – | > 10 µM | – | 146 nM | – | – | – | – | – | – | – | – |
| COc1cccc2cc(-c3nc([C@H]4CC[C@H](C(=O)O)CC4)n4ncnc(N)c34)[nH]c12 [OSI-027] | – | 342 nM | – | 1220 nM | – | 775 nM | 1500 nM | 579 nM | 1820 nM | 564 nM | 1160 nM | – | – |
| O=C(Nc1cccnc1)N1CCC(Cc2cccc(Oc3ccc(C(F)(F)F)cn3)c2)CC1 [PF-3845] | – | 1560 nM | – | – | – | – | 2560 nM | – | 2040 nM | – | – | 3480 nM | 2860 nM |
| CNC(=O)c1ccc(-c2cnc3ncc(Cc4ccc5ncccc5c4)n3n2)cc1F [NVP-INC280] | > 1 µM | – | – | – | – | – | – | – | – | – | – | – | > 1000 nM |
| Cc1sc2c(c1C)C(c1ccc(Cl)cc1)=N[C@@H](CC(=O)OC(C)(C)C)c1nnc(C)n1-2 [(+)JQ1] | – | 113 nM | – | 76.9 nM | – | 362 nM | 165 nM | – | 231 nM | 215 nM | 238 nM | 1080 nM | 546 nM |
| Cc1cc(C)c(/C=C2\C(=O)Nc3ccccc32)[nH]1 [Semaxanib] | > 10 µM | > 10000 nM | – | > 10000 nM | – | – | – | – | – | – | – | > 10000 nM | > 10000 nM |
| CCc1cc2c(cc1N1CCC(N3CCOCC3)CC1)C(C)(C)c1[nH]c3cc(C#N)ccc3c1C2=O [Alectinib] | > 1 µM | – | – | – | – | – | – | – | – | > 1000 nM | – | – | – |
| CC(=O)O[C@@]12CO[C@@H]1C[C@H](O)[C@@]1(C)C(=O)[C@H](O)C3=C(C)[C@@H](OC(=O)[C@H](O)[C@@H](NC(=O)OC(C)(C)C)c4ccccc4)C[C@@](O)([C@@H](OC(=O)c4ccccc4)[C@H]21)C3(C)C [Docetaxel] | – | 1.84 nM | – | 3.18 nM | 3.14 nM | 2.14 nM | 3.9 nM | 10.9 nM | 2.02 nM | 0.8 nM | 2.24 nM | – | – |
| CCCS(=O)(=O)Nc1ccc(F)c(C(=O)c2c[nH]c3ncc(-c4ccc(Cl)cc4)cc23)c1F [Vemurafenib] | – | 1900 nM | – | 1760 nM | – | 1910 nM | 1130 nM | 1610 nM | 3080 nM | 3170 nM | 1910 nM | – | – |
| CC(C)(O)CC(=O)NCCn1ccc2ncnc(Nc3ccc(Oc4cccc(C(F)(F)F)c4)c(Cl)c3)c21 [TAK-285] | > 2.5 µM | > 2500 nM | > 2.5 µM | – | > 2500 nM | – | – | – | – | – | – | – | – |
| CN1CCN(c2ccc3nc(-c4c(N)c5c(F)cccc5[nH]c4=O)[nH]c3c2)CC1 [Dovitinib] | – | 1900 nM | – | – | > 10000 nM | – | – | – | – | > 10000 nM | – | 1860 nM | – |
| CC[C@@H]1C(=O)N(C)c2cnc(Nc3ccc(C(=O)NC4CCN(C)CC4)cc3OC)nc2N1C1CCCC1 [BI 2536] | – | 9.81 nM | 0.218 µM | 8.62 nM | 14.8 nM | 8.37 nM | 22.1 nM | 11.4 nM | 13.5 nM | 4.57 nM | 26.3 nM | – | – |
| O=C(O)C1(C(=O)O)CCC1.[NH2-].[NH2-].[Pt+2] [Carboplatin] | 16 µM | – | 16.6 µM | – | 8070 nM | – | – | – | – | – | – | – | – |
| CN(C)CCOc1ccc(/C(=C(/CCCl)c2ccccc2)c2ccccc2)cc1 [Toremifene] | – | – | – | 1090 nM | – | 2030 nM | – | 2190 nM | – | – | – | 2370 nM | 3740 nM |
| Nc1cc(C(F)(F)F)c(-c2cc(N3CCOCC3)nc(N3CCOCC3)n2)cn1 [Buparlisib] | – | 269 nM | – | 1070 nM | 3900 nM | 887 nM | 781 nM | 734 nM | 520 nM | 42.9 nM | 1210 nM | – | – |
| C[C@@]1(C(=O)Nc2ccc(F)nc2)CCCN1c1nc(Nc2cc(C3CC3)n[nH]2)c2cccn2n1 | – | – | – | 290 nM | 2850 nM | – | 1150 nM | 617 nM | 412 nM | 630 nM | 904 nM | 3420 nM | – |
| CCc1cncnc1N1CCN(Cc2nc3ccc(C(F)(F)F)cc3[nH]2)CC1 | – | 1840 nM | – | – | 2140 nM | – | – | 1460 nM | – | – | – | 1820 nM | 1790 nM |
| Cc1cnc(Nc2ccc(OCCN3CCCC3)cc2)nc1Nc1cccc(S(=O)(=O)NC(C)(C)C)c1 | – | 112 nM | – | 233 nM | – | 203 nM | 262 nM | 1330 nM | 534 nM | 876 nM | 977 nM | 715 nM | 262 nM |
| CS(=O)(=O)OCCCCOS(C)(=O)=O [Busulfan] | – | 27300 nM | 35.6 µM | – | 26900 nM | 24600 nM | 26600 nM | 36400 nM | 29600 nM | 15800 nM | – | – | – |
| C[C@]1(c2nc3c(C(N)=O)cccc3[nH]2)CCCN1 [Veliparib] | – | – | – | – | – | – | – | – | – | – | – | 3590 nM | 2020 nM |
